Patent US10294202B2, “Pyrrolidinones as herbicides” (FMC Corporation, priority 2013, dated 2019)

Columns and labels:
pigweed = experiment: Test A pre-/postemergence herbicide test; assay type: in vivo, Amaranthus retroflexus
Outline: (§1)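 Seeds sown in loam soil/sand blend received a preemergence directed soil spray of test chemical in non-phytotoxic solvent with surfactant; postemergence plants (2–10 cm, one- to two-leaf stage) were sprayed with the same formulation. After about 10 days in greenhouse, injury was rated visually versus untreated controls, 0 (no effect) to 100 (complete control).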

barnyardgrass [1] = experiment: Test B flooded paddy test; assay type: in vivo, Echinochloa crus-galli; conditions: 250 g ai/ha, Flood; scale of 0 to 100 where 0 is no effect and 100 is complete control
Outline: (§2)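 Treatment was made at the 2-leaf stage by dosing the standing floodwater, kept 3 cm above soil level for the whole test. Greenhouse exposure lasted 13 to 15 days. Response is a visual percent rating relative to controls, where a dash indicates no test result.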

crabgrass, large = experiment: Test A pre-/postemergence herbicide test; assay type: in vivo, Digitaria sanguinalis
Outline: as §1

ducksalad = experiment: Test B flooded paddy test; assay type: in vivo, Heteranthera limosa; conditions: 250 g ai/ha, Flood; scale of 0 to 100 where 0 is no effect and 100 is complete control
Outline: as §2

rice = experiment: Test B flooded paddy test; assay type: in vivo, Oryza sativa; conditions: 250 g ai/ha, Flood; scale of 0 to 100 where 0 is no effect and 100 is complete control
Outline: as §2

velvetleaf = experiment: Test A pre-/postemergence herbicide test; assay type: in vivo, Abutilon theophrasti
Outline: as §1

sedge, umbrella = experiment: Test B flooded paddy test; assay type: in vivo, Cyperus difformis; conditions: 250 g ai/ha, Flood; scale of 0 to 100 where 0 is no effect and 100 is complete control
Outline: as §2

wheat = experiment: Test A pre-/postemergence herbicide test; assay type: in vivo, Triticum aestivum
Outline: as §1

giant foxtail = experiment: Test A pre-/postemergence herbicide test; assay type: in vivo, Setaria faberii
Outline: as §1

morningglory = experiment: Test A pre-/postemergence herbicide test; assay type: in vivo, Ipomoea spp.
Outline: as §1

corn = experiment: Test A pre-/postemergence herbicide test; assay type: in vivo, Zea mays
Outline: as §1

barnyardgrass [2] = experiment: Test A pre-/postemergence herbicide test; assay type: in vivo, Echinochloa crus-galli
Outline: as §1

[3] = Postemergence, 1000 g ai/ha, 0 to 100 scale (0 no effect, 100 complete control)
[4] = Preemergence, 1000 g ai/ha, visual rating on 0 to 100 scale (0 no effect, 100 complete control), approx. 10 days
[5] = Postemergence, 125 g ai/ha, 0 to 100 scale, 0 no effect, 100 complete control
[6] = Postemergence, 500 g ai/ha, 0 to 100 scale (0 no effect, 100 complete control)
[7] = Preemergence, 125 g ai/ha, visual rating on 0 to 100 scale (0 no effect, 100 complete control)
[8] = preemergence, 500 g ai/ha, 0 to 100 scale
[9] = preemergence, 500 g ai/ha, 0 to 100 scale (0 no effect, 100 complete control)

O=C1NCC(c2ccc(Cl)c(Cl)c2)C1C(=O)Nc1ccccc1[N+](=O)[O-] (stereo not shown) [Compound 39]
Plant response rating, Pigweed (pigweed; [3]): 50 | Plant response rating, Pigweed (pigweed; [4]): 0 | Plant response rating, Barnyardgrass (barnyardgrass [1]): 0 | Plant response rating, Crabgrass, Large (crabgrass, large; [3]): 80 | Plant response rating, Crabgrass, Large (crabgrass, large; [4]): 90 | Plant response rating, Ducksalad (ducksalad): 0 | Plant response rating, Rice (rice): 0 | Plant response rating, Velvetleaf (velvetleaf; [3]): 10 | Plant response rating, Velvetleaf (velvetleaf; [4]): 0 | Plant response rating, Sedge, Umbrella (sedge, umbrella): 0 | Plant response rating, Wheat (wheat; [3]): 40 | Plant response rating, Wheat (wheat; [4]): 0 | Plant response rating, Foxtail, Giant (giant foxtail; [3]): 70 | Plant response rating, Foxtail, Giant (giant foxtail; [4]): 80 | Plant response rating, Morningglory (morningglory; [3]): 10 | Plant response rating, Morningglory (morningglory; [4]): 0 | Plant response rating, Corn (corn; [3]): 0 | Plant response rating, Corn (corn; [4]): 0 | Plant response rating, Barnyardgrass (barnyardgrass [2]; [3]): 50 | Plant response rating, Barnyardgrass (barnyardgrass [2]; [4]): 70

Cc1ccccc1NC(=O)C1C(=O)NCC1c1ccc(Cl)c(Cl)c1 (stereo not shown) [Compound 40]
Plant response rating, Pigweed (pigweed; [3]): 0 | Plant response rating, Pigweed (pigweed; [4]): 0 | Plant response rating, Barnyardgrass (barnyardgrass [1]): 0 | Plant response rating, Crabgrass, Large (crabgrass, large; [3]): 90 | Plant response rating, Crabgrass, Large (crabgrass, large; [4]): 90 | Plant response rating, Ducksalad (ducksalad): 0 | Plant response rating, Rice (rice): 0 | Plant response rating, Velvetleaf (velvetleaf; [3]): 0 | Plant response rating, Velvetleaf (velvetleaf; [4]): 0 | Plant response rating, Sedge, Umbrella (sedge, umbrella): 0 | Plant response rating, Wheat (wheat; [3]): 20 | Plant response rating, Wheat (wheat; [4]): 20 | Plant response rating, Foxtail, Giant (giant foxtail; [3]): 90 | Plant response rating, Foxtail, Giant (giant foxtail; [4]): 90 | Plant response rating, Morningglory (morningglory; [3]): 10 | Plant response rating, Morningglory (morningglory; [4]): 0 | Plant response rating, Corn (corn; [3]): 20 | Plant response rating, Corn (corn; [4]): 30 | Plant response rating, Barnyardgrass (barnyardgrass [2]; [3]): 80 | Plant response rating, Barnyardgrass (barnyardgrass [2]; [4]): 90

O=C1NCC(c2ccc(Cl)nc2)C1C(=O)Nc1ccccc1F (stereo not shown) [Compound 41]
Plant response rating, Pigweed (pigweed; [5]): 0 | Plant response rating, Pigweed (pigweed; [6]): 30 | Pigweed plant response rating (pigweed; [7]): 0 | Plant response rating, Pigweed (pigweed; [8]): 0 | Plant response rating, Barnyardgrass (barnyardgrass [1]): 0 | Plant response rating, Crabgrass, Large (crabgrass, large; [5]): 30 | Plant response rating, Crabgrass, Large (crabgrass, large; [6]): 60 | Crabgrass, Large plant response rating (crabgrass, large; [7]): 60 | Plant response rating, Crabgrass, Large (crabgrass, large; [8]): 90 | Plant response rating, Ducksalad (ducksalad): 70 | Plant response rating, Rice (rice): 0 | Plant response rating, Velvetleaf (velvetleaf; [5]): 0 | Plant response rating, Velvetleaf (velvetleaf; [6]): 30 | Velvetleaf plant response rating (velvetleaf; [7]): 0 | Plant response rating, Velvetleaf (velvetleaf; [8]): 0 | Plant response rating, Sedge, Umbrella (sedge, umbrella): 20 | Plant response rating, Wheat (wheat; [5]): 0 | Plant response rating, Wheat (wheat; [6]): 0 | Wheat plant response rating (wheat; [7]): 0 | Plant response rating, Wheat (wheat; [8]): 0 | Plant response rating, Foxtail, Giant (giant foxtail; [5]): 0 | Plant response rating, Foxtail, Giant (giant foxtail; [6]): 0 | Foxtail, Giant plant response rating (giant foxtail; [7]): 10 | Plant response rating, Foxtail, Giant (giant foxtail; [8]): 70 | Plant response rating, Morningglory (morningglory; [5]): 0 | Plant response rating, Morningglory (morningglory; [6]): 0 | Plant response rating, Corn (corn; [5]): 0 | Plant response rating, Corn (corn; [6]): 0 | Corn plant response rating (corn; [7]): 0 | Plant response rating, Corn (corn; [8]): 0 | Plant response rating, Barnyardgrass (barnyardgrass [2]; [5]): 0 | Plant response rating, Barnyardgrass (barnyardgrass [2]; [6]): 50 | Barnyardgrass plant response rating (barnyardgrass [2]; [7]): 30 | Plant response rating, Barnyardgrass (barnyardgrass [2]; [9]): 60

O=C1NCC(c2ccc(F)c(F)c2)C1C(=O)Nc1ccccn1 (stereo not shown) [Compound 45]
Plant response rating, Pigweed (pigweed; [5]): 0 | Plant response rating, Pigweed (pigweed; [6]): 0 | Pigweed plant response rating (pigweed; [7]): 0 | Plant response rating, Pigweed (pigweed; [8]): 0 | Plant response rating, Barnyardgrass (barnyardgrass [1]): 0 | Plant response rating, Crabgrass, Large (crabgrass, large; [5]): 60 | Plant response rating, Crabgrass, Large (crabgrass, large; [6]): 80 | Crabgrass, Large plant response rating (crabgrass, large; [7]): 80 | Plant response rating, Crabgrass, Large (crabgrass, large; [8]): 90 | Plant response rating, Ducksalad (ducksalad): 80 | Plant response rating, Rice (rice): 20 | Plant response rating, Velvetleaf (velvetleaf; [5]): 0 | Plant response rating, Velvetleaf (velvetleaf; [6]): 0 | Velvetleaf plant response rating (velvetleaf; [7]): 0 | Plant response rating, Velvetleaf (velvetleaf; [8]): 0 | Plant response rating, Sedge, Umbrella (sedge, umbrella): 40 | Plant response rating, Wheat (wheat; [5]): 0 | Plant response rating, Wheat (wheat; [6]): 0 | Wheat plant response rating (wheat; [7]): 0 | Plant response rating, Wheat (wheat; [8]): 0 | Plant response rating, Foxtail, Giant (giant foxtail; [5]): 20 | Plant response rating, Foxtail, Giant (giant foxtail; [6]): 70 | Foxtail, Giant plant response rating (giant foxtail; [7]): 50 | Plant response rating, Foxtail, Giant (giant foxtail; [8]): 80 | Plant response rating, Morningglory (morningglory; [5]): 40 | Plant response rating, Morningglory (morningglory; [6]): 50 | Morningglory plant response rating (morningglory; [7]): 0 | Plant response rating, Morningglory (morningglory; [8]): 0 | Corn plant response rating (corn; [7]): 0 | Plant response rating, Corn (corn; [8]): 0 | Plant response rating, Barnyardgrass (barnyardgrass [2]; [5]): 50 | Plant response rating, Barnyardgrass (barnyardgrass [2]; [6]): 80 | Barnyardgrass plant response rating (barnyardgrass [2]; [7]): 10 | Plant response rating, Barnyardgrass (barnyardgrass [2]; [9]): 80

O=C1NCC(c2ccc(F)c(F)c2)C1C(=O)Nc1cccc[n+]1[O-] (stereo not shown) [Compound 47]
Plant response rating, Pigweed (pigweed; [5]): 0 | Plant response rating, Pigweed (pigweed; [6]): 0 | Pigweed plant response rating (pigweed; [7]): 0 | Plant response rating, Pigweed (pigweed; [8]): 0 | Plant response rating, Barnyardgrass (barnyardgrass [1]): 0 | Plant response rating, Crabgrass, Large (crabgrass, large; [5]): 0 | Plant response rating, Crabgrass, Large (crabgrass, large; [6]): 0 | Crabgrass, Large plant response rating (crabgrass, large; [7]): 10 | Plant response rating, Crabgrass, Large (crabgrass, large; [8]): 60 | Plant response rating, Ducksalad (ducksalad): 0 | Plant response rating, Rice (rice): 0 | Plant response rating, Velvetleaf (velvetleaf; [5]): 0 | Plant response rating, Velvetleaf (velvetleaf; [6]): 0 | Velvetleaf plant response rating (velvetleaf; [7]): 0 | Plant response rating, Velvetleaf (velvetleaf; [8]): 0 | Plant response rating, Sedge, Umbrella (sedge, umbrella): 0 | Plant response rating, Wheat (wheat; [5]): 0 | Plant response rating, Wheat (wheat; [6]): 0 | Wheat plant response rating (wheat; [7]): 0 | Plant response rating, Wheat (wheat; [8]): 0 | Plant response rating, Foxtail, Giant (giant foxtail; [5]): 0 | Plant response rating, Foxtail, Giant (giant foxtail; [6]): 0 | Foxtail, Giant plant response rating (giant foxtail; [7]): 0 | Plant response rating, Foxtail, Giant (giant foxtail; [8]): 0 | Plant response rating, Morningglory (morningglory; [5]): 0 | Plant response rating, Morningglory (morningglory; [6]): 20 | Morningglory plant response rating (morningglory; [7]): 0 | Plant response rating, Morningglory (morningglory; [8]): 0 | Corn plant response rating (corn; [7]): 0 | Plant response rating, Corn (corn; [8]): 0 | Plant response rating, Barnyardgrass (barnyardgrass [2]; [5]): 0 | Plant response rating, Barnyardgrass (barnyardgrass [2]; [6]): 0 | Barnyardgrass plant response rating (barnyardgrass [2]; [7]): 0 | Plant response rating, Barnyardgrass (barnyardgrass [2]; [9]): 0
